Data as given in patent US20120258873A1 (priority 2011, published 2012).

Key:
Type in all cases: biochemical
[1] = molecular target: K9D3 (derivative of Anaerostipes caccae KARI) (Anaerostipes caccae, UniProt B0MCX7, S56A/S58D); assay: Inhibition of purified KARI by DHMB, spectrophotometric NADPH oxidation assay; settings: competitive vs. acetolactate, 30° C., pH 6.8, NADPH 0.2 mM, read-out: KI Values for KARI Inhibition by DHMB Isomers
Procedure: (§1) The buffer was 0.1 M K^+ Hepes, pH 6.8, containing 10 mM MgCl2 and 1 mM EDTA. NADPH was present at 0.2 mM, and racemic acetolactate was present at either 3 mM or 0.725 mM (S) isomer. The rate of NADPH oxidation in the presence and absence of either fast or slow DHMB was measured. Vmax for each sample was calculated from the observed rate and the known acetolactate Km using the Michaelis-Menten equation. A volumetric Ki was estimated for each measurement in the presence of DHMB using the Michaelis-Menten equation as modified for competitive inhibition vs. acetolactate (the Km term in the MM equation is multiplied by (1+[I]/Ki), and the equation is solved for Ki. The results were converted to mM upon completion of the NMR experiment and are shown in Table 5.

[2] = molecular target: dihydroxyacid dehydratase (DHAD) (Streptococcus mutans serotype c, UniProt Q8DRT7); assay: Inhibition of DHAD conversion of DHIV to 2-KIV by DHMB, colorimetric assay; settings: read-out: inhibition constants (Ki) for DHAD
Procedure: 101: 999-1004 (1993). The assay took place in a 2 mL Eppendorf tube placed in a heating block maintained at 30° C. […] The assay was initiated by adding a 10× concentrated stock of substrate. Samples were removed (0.35 mL) at times 0.1 and 30 minutes, and the reaction was stopped by mixing into 0.35 mL 0.1 N HCl with 0.05% 2,4-dinitrophenylhydrazine (Aldrich) in a second Eppendorf tube. After incubating 30 minutes at room temperature, 0.35 mL of 4N NaOH was added to the mixture, mixed, and centrifuged at 15,000×G for 2 minutes in a centrifuge (Beckman-Coulter Microfuge 18). The absorbance of the solution at 540 nm was then measured in a 1 cm pathlength cuvette using a Cary 300 Bio UV-Vis spectrophometer (Varian). Based on a standard curve using authentic 2-KIV (Fluka), 1 OD absorbance at 540 nm is produced by 0.28 mM 2-KIV. […] Both forms of DHMB behaved liked competitive inhibitors of DHIV. […] The fast and slow isomers of DHMB had calculated inhibition constants of 7 mM and 5 mM, respectively.

[3] = molecular target: JEA1 (derivative of Pseudomonas fluorescens KARI) (Pseudomonas fluorescens, UniProt Q4K608); assay: Inhibition of purified KARI by DHMB, spectrophotometric NADPH oxidation assay; settings: competitive vs. acetolactate, 30° C., pH 6.8, NADPH 0.2 mM, read-out: KI Values for KARI Inhibition by DHMB Isomers
JEA1 (derivative of Pseudomonas fluorescens KARI), sequence (Q4K608 whole entry): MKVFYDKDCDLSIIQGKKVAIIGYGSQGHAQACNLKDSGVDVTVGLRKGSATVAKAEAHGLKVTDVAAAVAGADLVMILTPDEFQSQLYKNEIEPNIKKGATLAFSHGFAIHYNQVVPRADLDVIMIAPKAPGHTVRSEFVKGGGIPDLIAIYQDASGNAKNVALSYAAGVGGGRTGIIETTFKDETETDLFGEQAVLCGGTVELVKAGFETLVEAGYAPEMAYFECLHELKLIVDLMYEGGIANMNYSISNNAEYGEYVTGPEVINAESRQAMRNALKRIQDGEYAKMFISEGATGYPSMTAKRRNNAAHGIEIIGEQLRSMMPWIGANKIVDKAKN
Procedure: as §1

dihydroxyacid dehydratase (DHAD), sequence (Q8DRT7 whole entry): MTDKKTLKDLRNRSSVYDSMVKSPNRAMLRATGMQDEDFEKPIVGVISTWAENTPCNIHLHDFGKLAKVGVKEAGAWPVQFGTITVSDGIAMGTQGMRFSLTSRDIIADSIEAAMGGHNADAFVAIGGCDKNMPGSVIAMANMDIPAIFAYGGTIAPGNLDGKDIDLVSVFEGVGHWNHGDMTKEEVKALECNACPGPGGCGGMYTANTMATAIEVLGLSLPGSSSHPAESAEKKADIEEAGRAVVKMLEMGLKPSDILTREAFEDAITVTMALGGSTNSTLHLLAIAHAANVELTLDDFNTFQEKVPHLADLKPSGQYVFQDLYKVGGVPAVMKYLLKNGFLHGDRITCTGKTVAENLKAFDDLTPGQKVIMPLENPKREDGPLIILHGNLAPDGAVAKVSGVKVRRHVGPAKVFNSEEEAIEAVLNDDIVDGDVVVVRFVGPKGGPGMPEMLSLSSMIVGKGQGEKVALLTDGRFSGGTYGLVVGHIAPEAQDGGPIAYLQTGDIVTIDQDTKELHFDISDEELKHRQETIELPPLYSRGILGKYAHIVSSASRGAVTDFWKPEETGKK
K9D3 (derivative of Anaerostipes caccae KARI), sequence (B0MCX7 1-343, stated change not applied): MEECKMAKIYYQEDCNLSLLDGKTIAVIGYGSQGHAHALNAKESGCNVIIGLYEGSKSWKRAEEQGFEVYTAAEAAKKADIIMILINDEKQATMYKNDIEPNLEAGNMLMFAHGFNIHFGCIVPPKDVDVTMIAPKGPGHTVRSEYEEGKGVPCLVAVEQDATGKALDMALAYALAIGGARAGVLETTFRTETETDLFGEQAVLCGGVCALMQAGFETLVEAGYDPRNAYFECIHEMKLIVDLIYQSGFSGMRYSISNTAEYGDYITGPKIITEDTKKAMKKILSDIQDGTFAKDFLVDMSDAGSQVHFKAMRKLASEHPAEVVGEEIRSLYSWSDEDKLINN

| SMILES | Ki [1] [µM] | Ki [2] [µM] | Ki [3] [µM] |
| --- | --- | --- | --- |
| C[C@H](O)[C@](C)(O)C(=O)O [Fast DHMB, 2,3-dihydroxy-2-methyl butyrate] | 300 | 7000 | 230 |
| C[C@@H](O)[C@](C)(O)C(=O)O [Slow DHMB, 2,3-dihydroxy-2-methyl butyrate] | 200 | 5000 | 230 |
